Data on 27 molecules can be found in US9067871B2, “Aminotetraline derivatives, pharmaceutical compositions containing them, and their use in therapy” (ABBVIE DEUTSCHLAND GMBH & CO KG, priority 2009, dated 2015).

Where a name gives a salt, the structure may show the parent alone. Read-outs that look alike come from different tables or passages of the source.

As usually defined, the IC50 is the point on the concentration scale where inhibition reaches its midpoint.

The target in one experiment is human GlyT1c (Homo sapiens (Human), UniProt P48067). The experiment in a line: [3H]-Glycine uptake into recombinant CHO cells expressing human GlyT1. The experiment is classed as cell-based. The method, then: 1. [^3H]-Glycine uptake into recombinant CHO cells expressing human GlyT1: Human GlyT1c expressing recombinant hGlyT1c—5_CHO cells were plated at 20,000 cells per well in 96 well Cytostar-T scintillation microplates (Amersham Biosciences) and cultured to sub-confluency for 24 h. […] 80 μl HBSS buffer were added, followed by 10 μl inhibitor or vehicle (10% DMSO) and 10 μl [^3H]-glycine (TRK71, Amersham Biosciences) to a final concentration of 200 nM for initiation of glycine uptake. The plates were placed in a Wallac Microbeta (PerkinElmer) and continuously counted by solid phase scintillation spectrometry during up to 3 hours. Nonspecific uptake was determined in the presence of 10 μM Org24598.

Another experiment deals with human GlyT1c transporter (Homo sapiens (Human), UniProt P48067). The experiment in a line: Radioligand binding assay using recombinant CHO cell membranes expressing human GlyT1. Conditions: read-out: radioligand binding Kiapp. The text has this:
2. Radioligand binding assays using recombinant CHO cell membranes expressing human GlyT1: […]

[1] abbreviates: hGlyT1c_5_CHO cells, 200 nM [3H]-glycine.
Setting [2] is: human GlyT1c-expressing CHO cell membranes.

Chain of human GlyT1c transporter (P48067 whole entry): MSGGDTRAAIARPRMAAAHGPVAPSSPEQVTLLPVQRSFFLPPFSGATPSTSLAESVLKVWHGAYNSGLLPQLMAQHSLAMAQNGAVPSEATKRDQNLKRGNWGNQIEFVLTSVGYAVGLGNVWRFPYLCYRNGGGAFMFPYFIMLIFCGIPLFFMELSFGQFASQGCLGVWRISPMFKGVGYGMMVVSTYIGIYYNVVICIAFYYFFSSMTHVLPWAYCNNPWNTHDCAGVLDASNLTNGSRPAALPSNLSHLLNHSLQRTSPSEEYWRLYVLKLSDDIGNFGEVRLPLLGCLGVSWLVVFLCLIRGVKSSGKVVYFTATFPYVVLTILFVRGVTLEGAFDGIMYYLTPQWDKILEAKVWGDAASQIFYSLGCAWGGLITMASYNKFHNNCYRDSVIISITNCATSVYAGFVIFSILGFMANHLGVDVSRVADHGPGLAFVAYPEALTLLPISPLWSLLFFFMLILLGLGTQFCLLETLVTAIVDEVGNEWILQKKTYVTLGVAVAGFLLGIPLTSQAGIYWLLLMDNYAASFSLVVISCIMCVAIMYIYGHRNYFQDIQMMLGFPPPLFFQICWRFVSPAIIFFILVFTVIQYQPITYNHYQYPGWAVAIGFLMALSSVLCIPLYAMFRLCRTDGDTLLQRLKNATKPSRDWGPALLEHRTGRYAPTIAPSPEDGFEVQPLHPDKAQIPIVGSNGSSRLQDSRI
Chain of human GlyT1c (P48067 whole entry): as above

Consider `CCCS(=O)(=O)N(C)Cc1ccc2c(c1)[C@H](Cc1ccccc1)[C@H](N)CC2` (relative stereo) [Example 45, N-{[cis-7-amino-8-benzyl-5,6,7,8-tetrahydronaphthalen-2-yl]methyl}-N-methylpropane-1-sulfonamide hydrochloride], for which the half-inhibitory concentration (IC50) on human GlyT1c (setting [1]) is no more than 0.1 µM. Besides, at human GlyT1c transporter (setting [2]), the Ki was no more than 0.1 µM.
In the case of `NC1CCc2ccc(O)cc2C1Cc1ccc(Cl)c(Cl)c1` (stereo not drawn) [Example 35, 7-Amino-8-(3,4-dichlorobenzyl)-5,6,7,8-tetrahydronaphthalen-2-ol trifluoroacetate (salt)], at human GlyT1c (setting [1]), the IC50 was no more than 100 µM. In addition, the Ki at human GlyT1c transporter (setting [2]) was no less than 100 µM.
The matching figures for `CCOC(=O)NC1CCc2ccc(OCCNS(=O)(=O)c3cc(C)sc3C)cc2C1Cc1cccc(Cl)c1` (stereo not drawn) [Example 60, {1-(3-Chloro-benzyl)-7-[2-(2,5-dimethyl-thiophene-3-sulfonylamino)-ethoxy]-1,2,3,4-tetrahydro-naphthalen-2-yl}-carbamic acid ethyl ester]: no less than 100 µM and no more than 10 µM.
Consider `Cn1cc(S(=O)(=O)NCCOc2ccc3c(c2)C(Cc2ccc(Cl)c(Cl)c2)C(N)CC3)cn1` (stereo not drawn) [Example 4, 1-Methyl-1H-pyrazole-4-sulfonic acid {2-[7-amino-8-(3,4-dichloro-benzyl)-5,6,7,8-tetrahydro-naphthalen-2-yloxy]-ethyl}-amide hydrochloride], for which the IC50 at human GlyT1c (setting [1]) is no more than 0.01 µM. At human GlyT1c transporter (setting [2]), the Ki is no more than 0.01 µM.
On to `CCOC(=O)NC1CCc2ccc(OCCNS(=O)(=O)c3cc(C)cs3)cc2C1Cc1ccc(Cl)c(Cl)c1` (stereo not drawn) [Example 21], for which the IC50 at human GlyT1c (setting [1]) is no more than 1000 µM. Further, the Ki at human GlyT1c transporter (setting [2]) was no more than 100 µM.
The matching figures for `CCCS(=O)(=O)N1CC(Oc2ccc3c(c2)C(Cc2cccc(Cl)c2)C(N)CC3)C1` (stereo not drawn) [Example 83, 1-(3-Chloro-benzyl)-7-[1-(propane-1-sulfonyl)-azetidin-3-yloxy]-1,2,3,4-tetrahydronaphthalen-2-ylamine hydrochloride]: no more than 10 µM and no more than 1 µM.
In the case of `CCOC(=O)NC1CCc2ccc(OCCNS(=O)(=O)c3cccs3)cc2C1Cc1cccc(Cl)c1` (stereo not drawn) [Example 50, {1-(3-Chloro-benzyl)-7-[2-(thiophene-2-sulfonylamino)-ethoxy]-1,2,3,4-tetrahydronaphthalen-2-yl}-carbamic acid ethyl ester], the IC50 at human GlyT1c (setting [1]) is no more than 10 µM. The Ki at human GlyT1c transporter (setting [2]) is no more than 1 µM.
The matching figures for `CCOC(=O)NC1CCc2ccc(OCCNS(=O)(=O)c3cnn(C)c3)cc2C1Cc1cccc(Cl)c1` (stereo not drawn) [Example 46, {1-(3-Chloro-benzyl)-7-[2-(1-methyl-1H-pyrazole-4-sulfonylamino)-ethoxy]-1,2,3,4-tetrahydro-naphthalen-2-yl}-carbamic acid ethyl ester]: no more than 1 µM and no more than 1 µM.
The matching figures for `CCOC(=O)NC1CCc2ccc(OCCNS(=O)(=O)c3cccs3)cc2C1Cc1ccc(Cl)cc1Cl` (stereo not drawn) [Example 63, {1-(2,4-Dichloro-benzyl)-7-[2-(thiophene-2-sulfonylamino)-ethoxy]-1,2,3,4-tetrahydronaphthalen-2-yl}-carbamic acid ethyl ester]: no less than 100 µM and no more than 10 µM.
In the same order, the values of `CCOC(=O)NC1CCc2ccc(OCCNS(=O)(=O)c3cnn(CC)c3)cc2C1Cc1cccc(Cl)c1` (stereo not drawn) [Example 61, {1-(3-Chloro-benzyl)-7-[2-(1-ethyl-1H-pyrazole-4-sulfonylamino)-ethoxy]-1,2,3,4-tetrahydro-naphthalen-2-yl}-carbamic acid ethyl ester] are no more than 1000 µM and no more than 10 µM.
For `CCOC(=O)NC1CCc2ccc(OCCNS(=O)(=O)c3cn(C)cn3)cc2C1Cc1cccc(Cl)c1` (stereo not drawn) [Example 80, {1-(3-Chloro-benzyl)-7-[2-(1-methyl-1H-imidazole-4-sulfonylamino)-ethoxy]-1,2,3,4-tetrahydro-naphthalen-2-yl}-carbamic acid ethyl ester], the IC50 on human GlyT1c (setting [1]) is no more than 1 µM. For the same molecule, the Ki on human GlyT1c transporter (setting [2]) was no more than 1 µM.
Take `CCCS(=O)(=O)N(C)CCOc1ccc2c(c1)C(Cc1ccc(Cl)c(Cl)c1)C(N)CC2` (stereo not drawn) [Example 11, N-(2-(7-Amino-8-(3,4-dichlorobenzyl)-5,6,7,8-tetrahydronaphthalen-2-yloxy)ethyl)-N-methylpropane-1-sulfonamide hydrochloride]: at human GlyT1c (setting [1]), the IC50 was no more than 1 µM. In addition, the Ki at human GlyT1c transporter (setting [2]) was no more than 0.1 µM.
The matching figures for `CCOC(=O)NC1CCc2ccc(OCCNS(=O)(=O)c3cccnc3)cc2C1Cc1ccc(Cl)c(Cl)c1` (stereo not drawn) [Example 10, {1-(3,4-Dichloro-benzyl)-7-[2-(pyridine-3-sulfonylamino)-ethoxy]-1,2,3,4-tetrahydronaphthalen-2-yl}-carbamic acid ethyl ester]: no more than 100 µM and no more than 10 µM.
The matching figures for `CCCS(=O)(=O)N1CCC[C@@H]1COc1ccc2c(c1)C(Cc1cccc(Cl)c1)C(N)CC2` (stereo partly drawn) [Example 82, 1-(3-Chloro-benzyl)-7-[(R)-1-(propane-1-sulfonyl)-pyrrolidin-2-ylmethoxy]-1,2,3,4-tetrahydro-naphthalen-2-ylamine hydrochloride]: no more than 1 µM and no more than 0.1 µM.
The matching figures for `CCOC(=O)NC1CCc2ccc(OCCNS(=O)(=O)c3cc(C)cs3)cc2C1Cc1cccc(Cl)c1` (stereo not drawn) [Example 54, {1-(3-Chloro-benzyl)-7-[2-(4-methyl-thiophene-2-sulfonylamino)-ethoxy]-1,2,3,4-tetrahydro-naphthalen-2-yl}-carbamic acid ethyl ester]: no less than 100 µM and no more than 10 µM.
Take `CCCS(=O)(=O)NCCOc1ccc2c(c1)C(Cc1ccc(Cl)c(Cl)c1)C(N(C)C)CC2` (stereo not drawn) [Example 6]: the IC50 at human GlyT1c (setting [1]) is no more than 1 µM. Further, on human GlyT1c transporter (setting [2]), the Ki is no more than 0.1 µM.
Regarding `Cn1cnc(S(=O)(=O)NCCOc2ccc3c(c2)C(Cc2ccc(Cl)cc2)C(N)CC3)c1` (stereo not drawn) [Example 27, 1-Methyl-1H-imidazole-4-sulfonic acid {2-[7-amino-8-(4-chloro-benzyl)-5,6,7,8-tetrahydronaphthalen-2-yloxy]-ethyl}-amide hydrochloride], the IC50 at human GlyT1c (setting [1]) was no more than 0.01 µM. In addition, at human GlyT1c transporter (setting [2]), the Ki was no more than 0.01 µM.
On to `CCOC(=O)NC1CCc2ccc(OCCNS(C)(=O)=O)cc2C1Cc1ccc(Cl)c(Cl)c1` (stereo not drawn) [Example 12, [1-(3,4-Dichloro-benzyl)-7-(2-methanesulfonylamino-ethoxy)-1,2,3,4-tetrahydronaphthalen-2-yl]-carbamic acid ethyl ester], for which, on human GlyT1c (setting [1]), the IC50 was no more than 100 µM. In addition, on human GlyT1c transporter (setting [2]), the Ki is no less than 10 µM.
The matching figures for `CCCS(=O)(=O)N(C)CCOc1ccc2c(c1)C(Cc1cccc(Cl)c1)C(N)CC2` (stereo not drawn) [Example 79, Propane-1-sulfonic acid {2-[7-amino-8-(3-chloro-benzyl)-5,6,7,8-tetrahydronaphthalen-2-yloxy]-ethyl}-methyl-amide hydrochloride]: no more than 1 µM and no more than 0.1 µM.
In the same order, the values of `Cn1cc(S(=O)(=O)NCCOc2ccc3c(c2)C(Cc2ccc(Cl)cc2)C(N)CC3)cn1` (stereo not drawn) [Example 28, 1-Methyl-1H-pyrazole-4-sulfonic acid {2-[7-amino-8-(4-chloro-benzyl)-5,6,7,8-tetrahydronaphthalen-2-yloxy]-ethyl}-amide hydrochloride] are no more than 0.01 µM and no more than 0.01 µM.
The matching figures for `CCOC(=O)NC1CCc2ccc(C#N)cc2C1Cc1ccc(Cl)c(Cl)c1` (stereo not drawn) [Example 32, Ethyl [7-cyano-1-(3,4-dichlorobenzyl)-1,2,3,4-tetrahydronaphthalen-2-yl]carbamate]: no more than 100 µM and no more than 10 µM.
`NC1CCc2ccc(OCCNS(=O)(=O)c3cccs3)cc2C1Cc1ccc(Cl)c(Cl)c1` (stereo not drawn) [Example 17, Thiophene-2-sulfonic acid {2-[7-amino-8-(3,4-dichloro-benzyl)-5,6,7,8-tetrahydro-naphthalen-2-yloxy]-ethyl}-amide hydrochloride]: the IC50 on human GlyT1c (setting [1]) was no more than 10 µM. Further, on human GlyT1c transporter (setting [2]), the Ki was no more than 1 µM.
With `CCOC(=O)NC1CCc2ccc(OCCNS(=O)(=O)c3cn(C)cn3)cc2C1Cc1ccc(Cl)c(Cl)c1` (stereo not drawn) [Example 2, Ethyl 1-(3,4-dichlorobenzyl)-7-(2-(1-methyl-1H-imidazole-4-sulfonamido)ethoxy)-1,2,3,4-tetrahydronaphthalen-2-ylcarbamate], the IC50 on human GlyT1c (setting [1]) was no more than 1 µM. At human GlyT1c transporter (setting [2]), the Ki was no more than 0.1 µM.
With `Cc1csc(S(=O)(=O)NCCOc2ccc3c(c2)C(Cc2cccc(Cl)c2)C(N)CC3)c1` (stereo not drawn) [Example 67, 4-Methyl-thiophene-2-sulfonic acid {2-[7-amino-8-(3-chloro-benzyl)-5,6,7,8-tetrahydronaphthalen-2-yloxy]-ethyl}-amide hydrochloride], the IC50 on human GlyT1c (setting [1]) is no more than 1 µM. Further, at human GlyT1c transporter (setting [2]), the Ki was no more than 0.1 µM.
Regarding `NC1CCc2ccc(OCCN3CCCS3(=O)=O)cc2C1Cc1cccc(Cl)c1` (stereo not drawn) [Example 33, 1-(3-chlorobenzyl)-7-[2-(1,1-dioxidoisothiazolidin-2-yl)ethoxy]-1,2,3,4-tetrahydronaphthalen-2-amine hydrochloride], at human GlyT1c (setting [1]), the IC50 is no more than 1 µM. Further, the Ki at human GlyT1c transporter (setting [2]) was no more than 1 µM.
Turning to `CCCS(=O)(=O)NCCOc1ccc2c(c1)C(Cc1ccc(Cl)cc1Cl)C(N)CC2` (stereo not drawn) [Example 75, Propane-1-sulfonic acid {2-[7-amino-8-(2,4-dichloro-benzyl)-5,6,7,8-tetrahydronaphthalen-2-yloxy]-ethyl}-amide hydrochloride], the IC50 at human GlyT1c (setting [1]) was no more than 10 µM. For the same molecule, the Ki at human GlyT1c transporter (setting [2]) is no more than 1 µM.
As to `CCS(=O)(=O)CCCOc1ccc2c(c1)C(Cc1cccc(Cl)c1)C(N)CC2` (stereo not drawn) [Example 84, 1-(3-Chloro-benzyl)-7-(3-ethanesulfonyl-propoxy)-1,2,3,4-tetrahydro-naphthalen-2-ylamine hydrochloride], the IC50 at human GlyT1c was no more than 10 µM. For the same molecule, the Ki on human GlyT1c transporter is no more than 10 µM.
